Experimental data published in patent US20210070748A1, “INHIBITORS OF BRUTONS TYROSINE KINASE” (Pharmacyclics LLC, priority 2015, published 2021).

Assays:
Type in all cases: biochemical
[1] = molecular target: SRC (Homo sapiens, UniProt P12931); experiment: Inhibition of a panel of kinases, in vitro HotSpot kinase assay: SRC; conditions: Table 15, C compounds; 1 μM ATP
Description: (§1) The degree of inhibition of a panel of kinases is determined using the in vitro HotSpot kinase assay (purified enzymes, ^33P-ATP, an appropriate substrate and 1 μM ATP).

[2] = molecular target: T1, ITK (Homo sapiens, UniProt Q08881); experiment: Inhibition of a panel of kinases, in vitro HotSpot kinase assay: ITK; conditions: Table 15, C compounds; 1 μM ATP
T1 sequence (Q08881 1-620): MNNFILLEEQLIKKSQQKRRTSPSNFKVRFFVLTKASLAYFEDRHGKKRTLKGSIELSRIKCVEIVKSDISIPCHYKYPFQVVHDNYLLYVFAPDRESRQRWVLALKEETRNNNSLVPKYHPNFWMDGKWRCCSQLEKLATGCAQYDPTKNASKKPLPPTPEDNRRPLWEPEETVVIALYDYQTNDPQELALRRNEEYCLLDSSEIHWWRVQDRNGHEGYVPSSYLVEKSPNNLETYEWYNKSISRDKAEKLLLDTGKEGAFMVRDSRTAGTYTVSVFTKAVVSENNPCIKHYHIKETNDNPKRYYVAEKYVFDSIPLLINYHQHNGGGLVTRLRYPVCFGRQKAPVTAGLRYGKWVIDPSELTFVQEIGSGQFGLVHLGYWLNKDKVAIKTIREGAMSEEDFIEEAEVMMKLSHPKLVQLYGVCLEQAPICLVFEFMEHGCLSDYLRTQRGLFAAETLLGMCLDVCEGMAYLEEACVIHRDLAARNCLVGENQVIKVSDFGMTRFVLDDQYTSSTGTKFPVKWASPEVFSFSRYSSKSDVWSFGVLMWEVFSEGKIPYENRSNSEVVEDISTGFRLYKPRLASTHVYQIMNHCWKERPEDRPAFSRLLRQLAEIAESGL
Description: as §1

[3] = molecular target: T2, BTK-WT (Homo sapiens, UniProt Q06187); experiment: Btk in vitro inhibitory activity (one of Method A TR-FRET, Method B electrophoretic mobility shift, Method C radiometric filter binding); conditions: Table 15, C compounds; read-out: IC50 BTK-WT
T2 construct: purified from insect cells as a full-length construct containing an N-terminal 6X-His tag; His6 (N); made in house; host or cells: insect cells (baculovirus Sf21 in Method B)

[4] = molecular target: EGFR (Homo sapiens, UniProt P00533); experiment: Inhibition of a panel of kinases, in vitro HotSpot kinase assay: EGFR; conditions: Table 15, C compounds; 1 μM ATP
Description: as §1

T2 sequence (Q06187 whole entry): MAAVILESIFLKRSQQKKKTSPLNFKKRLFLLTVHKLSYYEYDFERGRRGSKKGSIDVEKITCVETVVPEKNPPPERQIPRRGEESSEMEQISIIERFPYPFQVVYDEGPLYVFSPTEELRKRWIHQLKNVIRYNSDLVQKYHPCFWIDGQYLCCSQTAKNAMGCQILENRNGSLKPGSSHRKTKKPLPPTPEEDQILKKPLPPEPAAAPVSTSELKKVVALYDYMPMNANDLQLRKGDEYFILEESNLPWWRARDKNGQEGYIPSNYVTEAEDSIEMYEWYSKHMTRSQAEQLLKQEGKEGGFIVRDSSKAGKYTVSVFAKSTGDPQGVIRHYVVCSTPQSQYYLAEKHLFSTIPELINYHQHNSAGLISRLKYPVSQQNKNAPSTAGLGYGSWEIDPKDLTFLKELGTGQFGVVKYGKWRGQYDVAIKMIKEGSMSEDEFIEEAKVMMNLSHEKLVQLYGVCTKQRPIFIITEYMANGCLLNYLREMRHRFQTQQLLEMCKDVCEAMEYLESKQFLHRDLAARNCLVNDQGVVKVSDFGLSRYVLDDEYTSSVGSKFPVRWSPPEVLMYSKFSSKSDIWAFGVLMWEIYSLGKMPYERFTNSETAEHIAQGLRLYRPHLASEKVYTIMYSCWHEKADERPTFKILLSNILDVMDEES
Chain of SRC (P12931 whole entry): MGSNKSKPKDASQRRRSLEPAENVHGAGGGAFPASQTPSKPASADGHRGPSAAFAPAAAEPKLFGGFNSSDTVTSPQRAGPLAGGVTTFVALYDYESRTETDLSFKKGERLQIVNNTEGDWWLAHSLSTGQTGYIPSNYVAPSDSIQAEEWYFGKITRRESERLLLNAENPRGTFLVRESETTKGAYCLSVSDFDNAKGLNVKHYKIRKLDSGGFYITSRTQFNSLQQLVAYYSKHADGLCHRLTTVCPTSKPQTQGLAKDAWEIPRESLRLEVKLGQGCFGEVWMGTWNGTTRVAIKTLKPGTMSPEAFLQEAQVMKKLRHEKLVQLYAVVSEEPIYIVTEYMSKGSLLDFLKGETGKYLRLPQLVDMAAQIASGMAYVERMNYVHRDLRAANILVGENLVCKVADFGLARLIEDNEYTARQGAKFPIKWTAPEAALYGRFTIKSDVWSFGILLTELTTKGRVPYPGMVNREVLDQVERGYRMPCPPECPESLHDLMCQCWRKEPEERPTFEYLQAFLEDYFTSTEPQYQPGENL
Chain of EGFR (P00533 25-1210): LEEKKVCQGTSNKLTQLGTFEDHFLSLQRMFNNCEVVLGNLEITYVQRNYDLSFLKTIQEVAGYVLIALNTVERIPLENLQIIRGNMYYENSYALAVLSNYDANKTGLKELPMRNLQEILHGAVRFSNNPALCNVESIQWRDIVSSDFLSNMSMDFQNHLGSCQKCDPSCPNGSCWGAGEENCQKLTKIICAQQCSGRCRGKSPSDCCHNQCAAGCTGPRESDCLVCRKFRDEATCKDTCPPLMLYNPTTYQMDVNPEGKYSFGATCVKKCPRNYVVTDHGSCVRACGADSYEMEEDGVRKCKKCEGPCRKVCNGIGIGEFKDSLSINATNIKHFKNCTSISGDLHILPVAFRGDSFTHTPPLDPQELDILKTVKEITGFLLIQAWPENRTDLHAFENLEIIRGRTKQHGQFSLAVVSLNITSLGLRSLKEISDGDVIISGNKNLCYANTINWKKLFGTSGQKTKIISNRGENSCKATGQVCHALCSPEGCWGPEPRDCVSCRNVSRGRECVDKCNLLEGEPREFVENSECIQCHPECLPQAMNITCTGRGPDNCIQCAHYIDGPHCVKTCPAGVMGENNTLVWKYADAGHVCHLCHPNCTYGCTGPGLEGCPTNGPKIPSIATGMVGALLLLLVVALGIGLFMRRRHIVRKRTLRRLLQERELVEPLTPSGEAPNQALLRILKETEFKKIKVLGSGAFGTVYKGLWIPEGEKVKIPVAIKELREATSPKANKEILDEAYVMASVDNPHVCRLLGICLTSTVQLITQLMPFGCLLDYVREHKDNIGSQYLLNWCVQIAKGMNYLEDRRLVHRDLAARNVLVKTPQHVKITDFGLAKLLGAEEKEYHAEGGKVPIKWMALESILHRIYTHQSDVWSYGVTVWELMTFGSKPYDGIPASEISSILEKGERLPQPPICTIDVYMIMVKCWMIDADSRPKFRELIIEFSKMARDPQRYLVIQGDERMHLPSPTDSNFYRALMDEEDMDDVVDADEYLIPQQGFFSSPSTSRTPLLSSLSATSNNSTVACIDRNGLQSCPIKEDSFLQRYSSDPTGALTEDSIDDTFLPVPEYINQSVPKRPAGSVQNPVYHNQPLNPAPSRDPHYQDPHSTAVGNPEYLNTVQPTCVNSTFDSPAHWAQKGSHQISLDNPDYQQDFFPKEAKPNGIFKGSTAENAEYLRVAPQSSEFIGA

IC50 [1]: 10 to 100 nM | IC50 [2]: ≤ 10 nM | IC50 [3]: ≤ 10 nM | IC50 [4]: 10 to 100 nM
SMILES: C=CC(=O)N1CC[C@@H](N(C)c2cnc(C(N)=O)c(Nc3ccc(C4CCN(C5CCCC5)CC4)cc3)n2)C1 [Example C-85, (R)-5-((1-acryloylpyrrolidin-3-yl)(methyl)amino)-3-(4-(1-cyclopentylpiperidin-4-yl)phenylamino) pyrazine-2-carboxamide]
